Measured values: patent US9624159B2, “Aniline derivatives, their preparation and their therapeutic application” (SANOFI, priority 2011, dated 2017)

Assays:
[1] = biological target: human prostanoid EP2 receptor (Homo sapiens (Human), UniProt P43116); test: Human prostanoid EP2 receptor cellular functional assay (cAMP, HTRF); type: cell-based; conditions: percent of control specific agonist response (10 μM PGE2)
Description: Test 1.2: Human Prostanoid EP2 Receptor Cellular Functional Assay
Human CHO cells expressing the recombinant human prostanoid EP2 receptor were suspended in assay medium (HBSS buffer (Invitrogen) containing 20 mM HEPES (pH7.4) and 500 μM isobutyl-methylxanthine IBMX) and plated out to yield approximately 1×10^4 cells/well in a 96-well. Following this, cells were incubated with agonists for 30 min in the presence of the test compounds. For stimulated control measurements, separate assay wells contain 10 μM PGE2 (control specific agonist). All incubations were carried out at 37° C. in a 5% CO2 atmosphere. Following incubation, the amount of cAMP in each well was determined by HTRF method. The cells are lysed and the fluorescence acceptor (D2-labeled cAMP) and fluorescence donor (anti-cAMP antibody labeled with europium cryptate) are added. After 60 min at room temperature, the fluorescence transfer is measured at λex=337 nm and λem=620 and 665 nm using a microplate reader (Rubystar, BMG).
The cAMP concentration is determined by dividing the signal measured at 665 nm by that measured at 620 nm (ratio).
The standard reference agonist PGE2 was tested at several concentrations to generate a concentration-response curve to determined EC50.
Analysis and Expression of Results […]

[2] = system: laser-induced glaucomatous monkeys; test: Laser-induced hypertensive cynomolgus monkey, intraocular pressure; type: in vivo; conditions: 0.01% topically to glaucomatous eye once daily for 5 days
Description: Laser-Induced Hypertensive Cynomolgus Monkey
Ten adult female cynomolgus monkeys, each weighing 3-5 kg, in which glaucoma had been induced unilaterally by diode laser photocoagulation of the mid-trabecular meshwork, were used in this study.
Intraocular pressure (IOP) was measured at 0 hr (before drug administration) and then hourly until 6 hrs after drug administration on one baseline day, one vehicle-treatment day, and treatment days 1, 3, and 5 with 0.01% of compound II(d).
Compound II(d) was tested in two groups of 4 monkeys for a total of 8 monkeys. Following one baseline day (untreated) and one vehicle-treatment day (50 μl (25 μl×2), drop of vehicle to the glaucomatous eye at 9:30 (a 50 μl drop (25 μl×2) of compound (II(d)) were topically applied to the glaucomatous eye only once daily at 9:30 am for 5 consecutive days.
Slit-lamp examination for the detection of aqueous humor flare and cells was performed in a dark room before drug administration and at 1, 3 and 5 hrs after dosing on baseline day and at the same times on treatment days 1, 3 and 5.
Two-tailed paired and unpaired t test and the ANOVA test were used for statistical analysis.

Sequence of human prostanoid EP2 receptor (P43116 whole entry): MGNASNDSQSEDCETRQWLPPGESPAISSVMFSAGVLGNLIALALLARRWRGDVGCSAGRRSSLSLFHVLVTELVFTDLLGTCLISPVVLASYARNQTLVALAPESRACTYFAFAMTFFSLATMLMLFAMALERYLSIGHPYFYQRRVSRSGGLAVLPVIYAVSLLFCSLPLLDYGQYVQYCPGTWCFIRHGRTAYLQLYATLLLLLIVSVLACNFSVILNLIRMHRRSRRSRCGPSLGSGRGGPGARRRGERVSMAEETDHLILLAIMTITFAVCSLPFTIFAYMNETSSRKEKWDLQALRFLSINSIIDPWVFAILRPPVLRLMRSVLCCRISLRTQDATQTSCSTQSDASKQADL

Compound | In vitro functional assay % response [1] | overall IOP reduction [2]
C[C@@H](Nc1c(F)ccc(OCC(=O)O)c1F)c1cc(-c2cccc(F)c2)ccc1F (single isomer, unassigned) [I(as) (+isomer)] | 124% | –
CC(C)OC(=O)COc1ccc(F)c(NCc2cc(-c3cccc(F)c3)ccc2F)c1F [II(d), Isopropyl 2-[2,4-difluoro-3-[[2-fluoro-5-(3-fluorophenyl)phenyl]methylamino]phenoxy]acetate] | – | 22%
